Measurements taken from PMC7534198, “The structural basis for the selectivity of sulfonamido dicarbaboranes toward cancer-associated carbonic anhydrase IX” (Journal of Enzyme Inhibition and Medicinal Chemistry, 2020).

Key:
[1] = molecular target: T1, CA IX (Homo sapiens, UniProt Q16790, C174S); assay: stopped-flow CO2 hydration; format: biochemical; settings: 8.5 mM CO2, 20 mM HEPES-Na pH 7.5, 20 mM Na2SO4, 25 °C, 0.0025% DDM, 0.5 nM enzyme; Cheng-Prusoff; read-out: In vitro inhibition / Ki (CA IX)
T1 construct: gene CA9; extracellular part, PG and CA domains, residues 38-391, C174S; expressed in HEK 293 cells and purified
Description: stopped-flow CO2 hydration on CA IX

[2] = molecular target: T2, CA II (Homo sapiens, UniProt P00918); assay: stopped-flow CO2 hydration; format: biochemical; settings: 8.5 mM CO2, 20 mM HEPES-Na pH 7.5, 20 mM Na2SO4, 25 °C, 2.5 nM enzyme; Cheng-Prusoff; read-out: In vitro inhibition / Ki (CA II)
T2 construct: gene CA2; recombinant, expressed in E. coli and purified
Description: stopped-flow CO2 hydration on CA II

Ki [1] [nM]	Ki [2] [nM]	Substance
14.8 ± 1.98	1300 ± 122	1-H2NSO2(CH2)5-1,2-closo-C2B10H11 [5a]
44.6 ± 4.86	821 ± 70.7	1-H2NSO2(CH2)6–1,2-closo-C2B10H11 [6a]
10.6 ± 1.37	299 ± 26	[7-H2NSO2-(CH2)5–7,8-nido-C2B9H11]K [5b^−]
29.3 ± 7.39	29.5 ± 3.32	[7-H2NSO2-(CH2)6–7,8-nido-C2B9H11]K [6b^−]
